The numbers were not newly measured in patent publication US20070224228A1, “Soap Bars Having Ultraviolet Radiation Protection” (priority 2004, published 2007), which cites them from elsewhere.

For this series the following is noted: partition coefficient; solvents octanol and water; values printed as approximate (˜).

A word on the Log P: it is the decadic logarithm of the partition coefficient of the neutral form, usually between octanol and water. Take `CCCCC(CC)COC(=O)C(C#N)=C(c1ccccc1)c1ccccc1` (centres unmarked) [Octocrylene]: the “Log P” value was ~6.9. For the compound Cyclomethicone, the “Log P” value is reported as ~5.7.
